The results in this text go back to US20050075276A1, “Use of inhibitors of glycogen synthase-3 to augment CD28 dependent -T-cell responses” (priority 2003, published 2005).

For assay [1], the system named is K562 cells. The experiment in a line: Cytolytic T-cell (CTL) killing of K562 cells, CytoTox96 assay. The conditions noted are these: for potentiation of cytolytic T-cell response: 6 days co-culture, FIG. 5A. The class given is cell-based, human.
Procedure: Cytotoxic activity was also measured and combined with a control where cultures were treated with anti-CD28 mAbs (5 μg/ml). After 6 days, cytolytic T-cells were harvested, washed twice and co-cultured with fresh K562 cells. Cytotoxcity was measured by the CytoTox96 non-radioative cytotoxicity assay from Promega (Southampton, UK).
(§1) Peripheral blood lymphocytes (PBLs) were isolated by Ficoll gradient centrifugation from Buffy coats, or from blood samples (60-120 cc) taken from healthy volunteers. Leukemic cells K562 were first treated with 50 ug/ml Mitomycin C (Sigma) for 1 hour in 5% CO2 incubator at 37° C. and then washed at least three times with RPMI 1640 to remove the presence of drug. Washed K562 cells and PBLs (1:5 ratio) were then resuspended in RPMI 1640 with 5% fetal calf serum, 1% penicillin-streptomycin and 1% L-glutamine. PBLs and leukemic cells were transferred into 24 well plate. […] Occassionally, PBLs would be preincubated with inhibitor for periods of time (i.e. 5-24 hours) prior to incubation with K562 cells. In either case, cell cultures were then allowed to incubate for 8 days in 5% CO2 incubator at 37° C. prior to an assessment of cytotoxic function. Over this period, the K562 cells die due to the treatment with mitomycin c.
For an assessment of cytotoxity, effector cells (PBLs) and fresh target cell K562 were added into 96 well plates at various ratios (50:1; 25:1 etc.). Culture medium, effector cells and target cells were added into separate wells as background controls. Cytotoxicity was assessed using a Cytotoxicity Assay kit (Promega) as outlined by the manufacturer.
Cytotoxicity was measured by CytoTox96® assay.
For assay [2], the system named is Peripheral T-cells. Nature of the assay: T-cell proliferation in response to tumor cell line K562 (3H-thymidine incorporation). It is filed as cell-based, human. The conditions noted are these: 48 hours, mitomycin C treated K562; FIG. 4. On the technique in general: Uptake of a labelled nucleoside into DNA is a usual measure of proliferation.
Procedure: as §1

On to `[Cl-].[Li+]` [Lithium Chloride], for which, in assay [1] (FIG. 6, inhibitor added at 1 mM and 5 mM), the “effect on cytolytic T-cell (CTL) killing of K562 cells” value is “enhances”.
For `O=C1NC(=O)C(c2ccccc2[N+](=O)[O-])=C1Nc1ccc(O)c(Cl)c1` [SB415286], the “potentiation of cytolytic T-cell response” value in assay [1] (10 um, 50:1 effector target ratio) was 5-6 fold; in assay [1] (50 um, 25:1 ratio), 5-6 fold. Also, the “increase in level of proliferative response to K562” value in assay [2] was “two-three fold”.
